Series [1] has as its target T1, human TRPV1 (Homo sapiens, UniProt Q8NER1).
T1 construct: expressed in transfected cells; host or cells: CHO (Chinese Hamster Ovary) cells, geneticin-selected
Put plainly: FLIPR calcium assay to detect calcium influx in CHO-huTrpV1 cells (antagonism of NADA response). It is filed as cell-based. As to conditions: stimulated with 2.5 μM NADA (EC80), FLIPR calcium 6, read-out: IC50, antagonist effect against human TRPV1. As for the experimental part: Chinese Hamster Ovary (CHO) cells transfected to express human TrpV1 receptor (which are herein referred to as CHO-huTrpV1 cells), were grown in F-12 Ham's Nutrient Mixture media (HyClone SH30026.01) supplemented with 10% Fetal Bovine Serum (Invitrogen #26140-079), 1% Antibiotic/antimycotic (Invitrogen #15240-062) and 500 μg/mL geneticin (ThermoFisher scientific #1031035). Cells were grown in T-75 flasks at 37° C. incubater with 5% CO2. The cells were passaged twice a week at a ratio of 1:10 to 1:20 to maintain steady growth. For experimentation, cells were harvarsted at approximately 80% confluency and plated onto 384 well black cell culture plates (cat #781091, Greinier Bio-One Inc.) at 15,000 cells per well in 20 μl media and grown overnight.
The loading dye was prepared following instruction of Calcium 6 assay kit ([…], #R8190): 10 ml buffer from bottle B was added to 1 vial of bottle A (adapted to room temperature from −20° C.) and mixed well, then 2.5 mM of fresh prepared probenecid was added and mixed well. 20 μl/well of loading dye was added on top of the cells, and incubated at 37° C. for 1 hour 30 min.
Assay buffer preparation: 1×HBSS, 2 mM HEPES, 0.1% BSA plus 2.5 mM freshly prepared probenecid (Invitrogen, #P36400). 25 μl/well assay buffer in 384 well clear plate (cat #782281, Greiner Bio-one) was dispensed with buffer distributor (Multidrop ComB1 from Thermo Scientific). The compounds were in 384 Echo plate (cat #LPL0200, Labcyte) and the starting concentration of compound was 10 mM, then 1 to 3 serial dilution in 100% DMSO, 8 ul/well). 125 nl compounds was transferred to the 384 well plate containing 25 μl/well buffer with Echo® 555 Liquid Handler (Labcyte), such that the compound concentration was 5 fold of final concentration. The plate was shook slowly at 40 rpm/min for 10 min to mix. […]
After compounds were added to the cell plate with loading dye, within 10-15 minutes, cell plate and plate containing NADA was placed into the FLIPR (Fluorescent Imaging Plate Reader) instrument (Tetra System, Molecular device). […]

Series [2] can be described thus: Solubility in solvents. The note with it: organic solvent or mixture. The format is physicochemical. As for the experimental part:
Compound I is poorly soluble (between 1 and 25 mg/ml) in acetonitrile, dicholormethane, methyl-tert-butyl ether, nitromethane. In toluene and heptane, compound I is sparingly soluble (<1 mg/ml).

Series [3] in a line: Hydrate formation on equilibration in aqueous fluid. It is filed as physicochemical. As to conditions: equilibrated at 4° C. in water, methanol/water (33:67, 42:58), after 2 weeks and 4 weeks.
Series [4] can be described thus: Solid form stability (humidity exposure, compression, grinding, granulation). The format is physicochemical.
Series [5] is described as follows: Hygroscopicity by DVS. The format is physicochemical.

In brackets after ≈: the same amount, converted by molar mass. A value given as a limit tells only on which side of the number the result lay.

Here are results for 4 compounds from patent US20260193188A1, “CRYSTALLINE POLYMORPH FORMS OF A TRPV1 ANTAGONIST AND FORMULATIONS THEREOF” (Bausch + Lomb Ireland Limited, priority 2022, published 2026).

A word on the IC50: it is the concentration needed to halve the response being measured. What is called solubility is the dissolved amount per volume that the medium holds.

T1 sequence (Q8NER1 whole entry): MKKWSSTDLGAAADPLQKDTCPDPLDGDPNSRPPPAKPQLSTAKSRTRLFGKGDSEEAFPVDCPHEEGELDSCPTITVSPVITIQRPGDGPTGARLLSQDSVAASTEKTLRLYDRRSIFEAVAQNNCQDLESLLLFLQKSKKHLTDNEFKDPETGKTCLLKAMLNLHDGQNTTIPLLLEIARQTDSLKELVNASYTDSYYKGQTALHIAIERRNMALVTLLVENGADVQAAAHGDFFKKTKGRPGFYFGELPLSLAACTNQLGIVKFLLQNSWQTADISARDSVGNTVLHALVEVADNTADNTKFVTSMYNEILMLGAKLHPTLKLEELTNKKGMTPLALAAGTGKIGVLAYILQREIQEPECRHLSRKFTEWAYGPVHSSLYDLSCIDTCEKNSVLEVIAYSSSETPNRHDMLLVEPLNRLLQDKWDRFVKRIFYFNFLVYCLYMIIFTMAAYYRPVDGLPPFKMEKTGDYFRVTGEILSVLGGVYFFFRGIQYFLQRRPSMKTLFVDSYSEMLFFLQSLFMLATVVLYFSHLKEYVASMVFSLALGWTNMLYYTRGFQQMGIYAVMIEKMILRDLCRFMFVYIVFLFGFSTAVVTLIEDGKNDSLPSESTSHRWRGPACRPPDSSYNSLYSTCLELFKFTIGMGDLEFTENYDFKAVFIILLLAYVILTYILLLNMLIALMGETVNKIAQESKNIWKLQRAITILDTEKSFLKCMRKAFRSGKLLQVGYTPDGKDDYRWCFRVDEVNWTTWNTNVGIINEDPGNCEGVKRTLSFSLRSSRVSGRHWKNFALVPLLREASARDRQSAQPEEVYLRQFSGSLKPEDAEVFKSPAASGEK

With `OCC(O)c1cc(F)c(CN[C@H]2C[C@H](Oc3ccc(F)c(C(F)(F)F)c3)C2)c2ccncc12` (mixture of isomers) [Example 1 (mixture of isomers), 1-(6-fluoro-5-((((1r,3r)-3-(4-fluoro-3-(trifluoromethyl)phenoxy)cyclobutyl)amino)methyl)isoquinolin-8-yl)ethane-1,2-diol], the IC50 in series [1] is 10.4 nM.
Consider `OC[C@@H](O)c1cc(F)c(CN[C@H]2C[C@H](Oc3ccc(F)c(C(F)(F)F)c3)C2)c2ccncc12` (single isomer, unassigned), for which the solubility was more than 25 mg/mL in series [2] (organic solvents and alcohol/water mixtures, acetone, 1,4-dioxane, ethanol, ethyl acetate, isopropyl acetate, methanol, 2-methyl-2-butanol, tetrahydrofuran, 1-propanol/water (98.5:1.5), 2-propanol/water (96:4), methanol/water (78:22)); 1 to 25 mg/mL (≈ 2.13 to 53.4 mM) in series [2] (organic solvents, acetonitrile, dicholormethane, methyl-tert-butyl ether, nitromethane); less than 1 mg/mL in series [2] (organic solvents, toluene and heptane). Moreover, in series [1], the IC50 turned out to be 0.62 nM. In addition, the Hydrate formation result in series [3] was “not observed to form a hydrate”.
Consider `OC[C@H](O)c1cc(F)c(CN[C@H]2C[C@H](Oc3ccc(F)c(C(F)(F)F)c3)C2)c2ccncc12` [(R)-1-(6-fluoro-5-((((1r,3R)-3-(4-fluoro-3-(trifluoromethyl)phenoxy)cyclobutyl)amino)methyl)isoquinolin-8-yl)ethane-1,2-diol], for which the IC50 in series [1] came to 6.3 nM.
As to `OC[C@@H](O)c1cc(F)c(CN[C@H]2C[C@H](Oc3ccc(F)c(C(F)(F)F)c3)C2)c2ccncc12` [Compound I Form A, (S)-1-(6-fluoro-5-((((1r,3S)-3-(4-fluoro-3-(trifluoromethyl)phenoxy)cyclobutyl)amino)methyl)isoquinolin-8-yl)ethane-1,2-diol], the “Change after humidity exposure” value in series [4] (92% RH for 24 h) was “did not result in change”. Moreover, the “Form change after compression” value in series [4] (compression, only minor peak broadening) was “no form change”. Further, in series [4] (dry grinding and wet granulation with water and ethanol (XRPD, FIG. 4)), the “Form change under grinding and granulation” value was “did not show form change”. Further, the “Hygroscopicity by DVS” value in series [5] (DVS) is listed as “slightly hygroscopic”. For the same compound, the “Solid state change after DVS” value in series [5] (DVS up to 95% RH) is given as “no change in solid state”. Besides, the Water vapor absorbed result in series [5] (DVS, at 95% RH) is “approximately 0.4%”.
